Test results: patent US20250289780A1, “N,N'-DIPHENYL-4,4'-BIPHENYLDICARBOXAMIDE ANALOGS AND THEIR USE IN CANCER TREATMENT” (Board of Regents, The University of Texas System, priority 2024, published 2025)
Entries after “also recorded” stand apart in the source; their conditions may differ.

Experiments:
[1] = target: Bcl-xL (Homo sapiens, UniProt Q07817); assay: Fluorescence polarization (FP) binding assay, Bcl-xL
Method: (§1) FIGS. 3A-3B show binding affinity to Bcl-xL, Bcl-2 and Mcl-1 determined by FP assay. FIG. 3A: compounds 1-9 mimicking BH3 peptides of proapoptotic proteins (scaffold I). FIG. 3B: Bim-mimicking compounds 10-16 derived from scaffolds II-VIII.
(§2) Their binding affinities on Bcl-xL, Bcl-2, and Mcl-1 were determined by fluorescence polarization (FP) assays (FIG. 3A). […] The role of carboxylic acids at both ends of compound 1 was also studied.

[2] = target: Bcl-2 (Homo sapiens, UniProt P10415); assay: Fluorescence polarization (FP) binding assay, Bcl-2
Chain of Bcl-2 (P10415 whole entry): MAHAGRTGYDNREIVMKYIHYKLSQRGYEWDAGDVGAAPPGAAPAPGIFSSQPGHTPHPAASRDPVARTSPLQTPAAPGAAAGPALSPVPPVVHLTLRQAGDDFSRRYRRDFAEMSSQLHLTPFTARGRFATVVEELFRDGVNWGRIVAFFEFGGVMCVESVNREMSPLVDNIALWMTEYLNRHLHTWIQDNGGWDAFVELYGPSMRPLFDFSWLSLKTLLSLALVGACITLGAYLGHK
Method: as §1, §2

[3] = target: Mcl-1 (Homo sapiens, UniProt Q07820); assay: Fluorescence polarization (FP) binding assay, Mcl-1
Chain of Mcl-1 (Q07820 whole entry): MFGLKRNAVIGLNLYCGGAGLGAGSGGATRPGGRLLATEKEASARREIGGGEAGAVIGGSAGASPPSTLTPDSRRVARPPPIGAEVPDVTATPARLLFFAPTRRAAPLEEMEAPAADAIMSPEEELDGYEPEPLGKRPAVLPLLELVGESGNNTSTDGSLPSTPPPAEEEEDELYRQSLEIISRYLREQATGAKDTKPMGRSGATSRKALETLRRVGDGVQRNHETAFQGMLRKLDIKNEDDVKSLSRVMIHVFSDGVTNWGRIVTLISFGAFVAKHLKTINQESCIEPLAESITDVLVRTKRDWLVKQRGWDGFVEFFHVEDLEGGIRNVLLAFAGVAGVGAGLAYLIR
Method: as §1, §2

[4] = target: T1, interaction of Bak with Bcl-xL (Homo sapiens, UniProt Q07817); assay: Co-immunoprecipitation in PC3 cells, Bak/Bcl-xL; assay type: cell-based; conditions: 10 μM, 24 h, immunoprecipitation and western blotting
T1 construct: endogenous in cells; host or cells: PC3 cells
T1 sequence (Q07817 whole entry): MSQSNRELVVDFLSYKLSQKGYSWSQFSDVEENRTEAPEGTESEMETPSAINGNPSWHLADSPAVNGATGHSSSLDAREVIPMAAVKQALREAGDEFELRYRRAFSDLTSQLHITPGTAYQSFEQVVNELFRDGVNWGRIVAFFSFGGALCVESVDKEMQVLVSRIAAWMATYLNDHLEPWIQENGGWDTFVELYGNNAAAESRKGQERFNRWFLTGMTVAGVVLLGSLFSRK
Method: (§3) FIGS. 5A-5F show cellular activity of mimetics 1, 14, and 23. FIG. 5A: effect of mimetics on the interaction between Bak and antiapoptotic proteins. PC3 cells were incubated in the presence or absence of mimetics (10 μM) for 24 h and cell lysates were analyzed by immunoprecipitation followed by western blotting. FIG. 5B: mitochondrial membrane depolarization by mimetics. PC3 cells that were treated with mimetics, ABT737 or MIM1 were stained with JC-1 dye and analyzed for change in red to green fluorescence intensity ratio of JC-1 dye. FIG. 5C: activation of caspase-3/-9 by mimetics. PC3 cells were treated with different concentrations of mimetics, ABT737, and MIM1 for 24 h and activities of caspase-3/-9 were measured using caspase-specific colorimetric assay kits. FIG. 5D: downregulation of Mcl-1 by siRNA. PC3 cells were transfected with Mcl-1 siRNA (30 μmol) or control siRNA (30 μmol) for 24 h and cell lysates were analyzed by western blotting. FIG. 5E: effect of Mcl-1 knockdown on mimetics-induced caspase activation. Same as for C except for the use of Mcl-1 knockdown PC3 cells. FIG. 5F: effect of Mcl-1 knockdown on mimetics-induced cell growth. PC3 cells were treated with mimetics (10 μM) or MIM1 (10 μM) for 24 h and cell viability was determined using MTT assay. […]

[5] = target: T2, interaction of Bak with Bcl-2 (Homo sapiens, UniProt P10415); assay: Co-immunoprecipitation in PC3 cells, Bak/Bcl-2; assay type: cell-based; conditions: 10 μM, 24 h, immunoprecipitation and western blotting
T2 construct: endogenous in cells; host or cells: PC3 cells
T2 sequence (P10415 whole entry): as the sequence (P10415 whole entry) above
Method: as §3

[6] = target: T3, interaction of Bak with Mcl-1 (Homo sapiens, UniProt Q07820); assay: Co-immunoprecipitation in PC3 cells, Bak/Mcl-1; assay type: cell-based; conditions: 10 μM, 24 h, immunoprecipitation and western blotting
T3 construct: endogenous in cells; host or cells: PC3 cells
T3 sequence (Q07820 whole entry): as the sequence (Q07820 whole entry) above
Method: as §3

[7] = test system: PC3 cells; assay: Mitochondrial membrane depolarization, JC-1 staining; assay type: cell-based
Method: FIGS. 5A-5F show cellular activity of mimetics 1, 14, and 23. FIG. 5A: effect of mimetics on the interaction between Bak and antiapoptotic proteins. PC3 cells were incubated in the presence or absence of mimetics (10 μM) for 24 h and cell lysates were analyzed by immunoprecipitation followed by western blotting. FIG. 5B: mitochondrial membrane depolarization by mimetics. PC3 cells that were treated with mimetics, ABT737 or MIM1 were stained with JC-1 dye and analyzed for change in red to green fluorescence intensity ratio of JC-1 dye. FIG. 5C: activation of caspase-3/-9 by mimetics. PC3 cells were treated with different concentrations of mimetics, ABT737, and MIM1 for 24 h and activities of caspase-3/-9 were measured using caspase-specific colorimetric assay kits. FIG. 5D: downregulation of Mcl-1 by siRNA. PC3 cells were transfected with Mcl-1 siRNA (30 μmol) or control siRNA (30 μmol) for 24 h and cell lysates were analyzed by western blotting. […] PC3 cells were treated with mimetics (10 μM) or MIM1 (10 μM) for 24 h and cell viability was determined using MTT assay.
These compounds were examined for their capabilities of inducing apoptosis. […] The formation of pores on the outer mitochondrial membrane and the resulting change in mitochondrial membrane potential were determined by JC-1 staining. […] The anti-proliferative activity was also evaluated using MTT assay in prostate cancer cells.

[8] = test system: caspase-3/-9; assay: Caspase-3/-9 colorimetric activity assay in PC3 cells; assay type: cell-based; conditions: for caspase-9/-3 activity (in words): PC3 cells, different concentrations, 24 h
Method: (§4) FIGS. 5A-5F show cellular activity of mimetics 1, 14, and 23. FIG. 5A: effect of mimetics on the interaction between Bak and antiapoptotic proteins. PC3 cells were incubated in the presence or absence of mimetics (10 μM) for 24 h and cell lysates were analyzed by immunoprecipitation followed by western blotting. FIG. 5B: mitochondrial membrane depolarization by mimetics. PC3 cells that were treated with mimetics, ABT737 or MIM1 were stained with JC-1 dye and analyzed for change in red to green fluorescence intensity ratio of JC-1 dye. FIG. 5C: activation of caspase-3/-9 by mimetics. PC3 cells were treated with different concentrations of mimetics, ABT737, and MIM1 for 24 h and activities of caspase-3/-9 were measured using caspase-specific colorimetric assay kits. FIG. 5D: downregulation of Mcl-1 by siRNA. PC3 cells were transfected with Mcl-1 siRNA (30 μmol) or control siRNA (30 μmol) for 24 h and cell lysates were analyzed by western blotting. FIG. 5E: effect of Mcl-1 knockdown on mimetics-induced caspase activation. Same as for C except for the use of Mcl-1 knockdown PC3 cells. FIG. 5F: effect of Mcl-1 knockdown on mimetics-induced cell growth. PC3 cells were treated with mimetics (10 μM) or MIM1 (10 μM) for 24 h and cell viability was determined using MTT assay.
(§5) These compounds were examined for their capabilities of inducing apoptosis. When effectors are released from anti-apoptotic proteins, they form pores on the outer mitochondrial membrane, leading to mitochondrial outer membrane permeabilization (MOMP) and cytochrome c release which promote caspase activation. The formation of pores on the outer mitochondrial membrane and the resulting change in mitochondrial membrane potential were determined by JC-1 staining. […] The anti-proliferative activity was also evaluated using MTT assay in prostate cancer cells.
(§6) Its specificity to Mcl-1 on prostate cancer cells with Mcl-1 silenced by siRNA (FIG. 5D) was further investigated. Compound 23 induced up to 3-fold increase in caspase-3/-9 activity in untransfected and control-transfected PC3 cells. Knockdown of Mcl-1, however, decreased the M161-induced caspase activity to the basal level (FIG. 5E). In MTT assay, 23 inhibited cell growth by 64% and 62% in untransfected and control-transfected PC3 cells, respectively.

[9] = test system: LNCaP cells; assay: MTT anti-proliferative assay, LNCaP; assay type: cell-based; conditions: Homo sapiens, read-out: IC50, cell growth
Method: as §5

[10] = test system: DU145 cells; assay: MTT anti-proliferative assay, DU145; assay type: cell-based; conditions: Homo sapiens, DU-145, read-out: IC50, cell growth
Method: as §5

[11] = test system: PC3 cells; assay: MTT anti-proliferative assay, PC3; assay type: cell-based; conditions: for cell growth inhibition: 10 μM, 24 h, MTT
Method: as §4, §5, §6

Chain of Bcl-xL (Q07817 whole entry): as the sequence (Q07817 whole entry) above

Row | SMILES | binding affinity to Bcl-xL (in words) [1] | binding affinity to Bcl-2 (in words) [2] | binding affinity to Mcl-1 (in words) [3] | further results
1 | CCC(C)COc1cc(-c2ccc(C(=O)Nc3ccc(C(=O)O)cc3OC(C)CC)c(OCCC(C)C)c2)ccc1C(=O)Nc1ccc(C(=O)O)cc1OCc1ccccc1 (stereo not shown) [Compound 1, 3-(Benzyloxy)-4-(4′-((2-(sec-butoxy)-4-carboxyphenyl)carbamoyl)-3′-(isopentyloxy)-3-(2-methylbutoxy)-[1,1′-biphenyl]-4-carboxamido)benzoic acid] |  |  |  | IC50 [1]: 140 to 230 nM; IC50 [2]: 140 to 230 nM; IC50 [3]: 140 to 230 nM; disruption of the interaction of Bak with Bcl-xL [4]: disrupted the interaction; disruption of the interaction of Bak with Bcl-2 [5]: disrupted the interaction; disruption of the interaction of Bak with Mcl-1 [6]: disrupted the interaction; red to green fluorescence intensity ratio of JC-1 dye [7]: significantly reduced; caspase-9/-3 activity (in words) [8]: induced caspase-9/-3 activity in a dose-dependent manner; IC50 [9]: 2870 to 9670 nM; IC50 [10]: 2870 to 9670 nM; IC50 ([11]; Homo sapiens, PC-3, PC3, MTT assay, read-out: IC50, cell growth): 2870 to 9670 nM
2 | CCCCCOc1cc(-c2ccc(C(=O)Nc3ccc(C(=O)O)cc3OC(C)CC)c(OCCC(C)C)c2)ccc1C(=O)Nc1ccc(C(=O)O)cc1OCC(C)C (stereo not shown) [Compound 2] | low affinity | high affinity | low affinity | 
3 | CCC(C)COc1cc(-c2ccc(C(=O)Nc3ccc(C(=O)O)cc3OCC(C)C)c(OCCC(C)C)c2)ccc1C(=O)Nc1ccc(C(=O)O)cc1OCC(C)C (stereo not shown) [Compound 4] |  | very selective for inhibiting Bcl-2 over Bcl-xL and Mcl-1 |  | 
4 | CCC(C)COc1cc(-c2ccc(C(=O)Nc3ccc(C(=O)O)cc3OC(C)C)c(OCCC(C)C)c2)ccc1C(=O)Nc1ccc(C(=O)O)cc1OC(C)CC (stereo not shown) [Compound 5] | negligible affinity; also recorded: not to Bcl-xL |  |  | 
5 | CCCCCOc1cc(-c2ccc(C(=O)Nc3ccc(C(=O)O)cc3OCc3ccc(F)cc3)c(OCCC(C)C)c2)ccc1C(=O)Nc1ccc(C(=O)O)cc1OCc1ccccc1 [Compound 6] | did not bind | did not bind | did not bind | 
6 | CCC(C)COc1cc(-c2ccc(C(=O)Nc3ccc(C(=O)O)cc3OC(C)CC)cc2OCCC(C)C)ccc1C(=O)Nc1ccc(C(=O)O)c(OCc2ccccc2)c1 (stereo not shown) [Compound 13] | substantially increased its affinity to Bcl-xL and Bcl-2 compared to Mcl-1 | substantially increased its affinity to Bcl-xL and Bcl-2 compared to Mcl-1 |  | 
7 | CCC(C)Oc1cc(C(=O)O)ccc1NC(=O)c1ccc(-c2ccc(C(=O)Nc3ccc(C(=O)O)cc3OC(C)CC)c(OC(C)CC)c2)cc1OCCC(C)C (stereo not shown) [Compound 20] | negligible binding |  | negligible binding | IC50 [2]: 340 nM
8 | CCC(C)Oc1cc(C(=O)O)ccc1NC(=O)c1ccc(-c2ccc(C(=O)Nc3ccc(C(=O)O)cc3OC(C)CC)c(OC(C)C)c2)cc1OCCC(C)C (stereo not shown) [Compound 23] |  |  | selectively inhibited only Mcl-1 | IC50 [3]: 160 nM; disruption of the interaction of Bak with Mcl-1 [6]: selectively inhibited Mcl-1 over Bcl-xL and Bcl-2; red to green fluorescence intensity ratio of JC-1 dye [7]: significantly reduced; induced caspase activity (in words) ([8]; Mcl-1 knockdown (siRNA) PC3 cells): basal level; caspase-9/-3 activity (in words) [8]: induced caspase-9/-3 activity in a dose-dependent manner; increase in caspase-3/-9 activity ([8]; control-transfected PC3 cells): up to 3 fold; increase in caspase-3/-9 activity ([8]; untransfected PC3 cells): up to 3 fold; cell growth inhibition ([11]; Mcl-1 knockdown PC3 cells): 18%; cell growth inhibition ([11]; control-transfected PC3 cells): 62%; cell growth inhibition ([11]; untransfected PC3 cells): 64%

The next lines start with results.

Row | binding affinity to Bcl-xL (in words) [1] | binding affinity to Bcl-2 (in words) [2] | binding affinity to Mcl-1 (in words) [3] | SMILES | further results
9 | no inhibition | no inhibition | no inhibition | CCCCOc1cc(C(=O)O)ccc1NC(=O)c1ccc(-c2ccc(C(=O)Nc3ccc(C(=O)O)cc3OC(C)CC)c(OCCC(C)C)c2)cc1OCC(C)C (stereo not shown) [Compound 3] | 
10 |  | affinity only for Bcl-2 |  | CCOc1cc(C(=O)O)ccc1NC(=O)c1ccc(-c2ccc(C(=O)Nc3ccc(C(=O)O)cc3OCC(C)C)c(OCCc3ccccc3)c2)cc1OCCC(C)C [Compound 7] | 
11 | complete loss in binding affinities | complete loss in binding affinities | complete loss in binding affinities | CCC(C)COc1cc(-c2ccc(C(=O)Nc3ccc(C(=O)O)cc3OC(C)CC)c(OCCC(C)C)c2)ccc1C(=O)Nc1ccccc1OCc1ccccc1 (stereo not shown) [Compound 9] | 
12 | lost affinity | maintaining affinity | maintaining affinity | CCC(C)COc1cc(-c2ccc(C(=O)Nc3ccc(C(=O)O)c(OC(C)CC)c3)c(OCCC(C)C)c2)ccc1C(=O)Nc1ccc(C(=O)O)cc1OCc1ccccc1 (stereo not shown) [Compound 10] | 
13 | selectivity for Bcl-xL and Bcl-2 | selectivity for Bcl-xL and Bcl-2 |  | CCC(C)COc1cc(-c2ccc(C(=O)Nc3ccc(C(=O)O)c(OC(C)CC)c3)c(OCCC(C)C)c2)ccc1C(=O)Nc1ccc(C(=O)O)c(OCc2ccccc2)c1 (stereo not shown) [Compound 11] | 
14 | significantly lost affinity | significantly lost affinity | significantly lost affinity | CCC(C)COc1cc(-c2ccc(C(=O)Nc3ccc(C(=O)O)cc3OC(C)CC)cc2OCCC(C)C)ccc1C(=O)Nc1ccc(C(=O)O)cc1OCc1ccccc1 (stereo not shown) [Compound 12] | 
15 | selective affinity only to Bcl-xL |  |  | CCC(C)COc1cc(-c2ccc(C(=O)Nc3ccc(C(=O)O)cc3OC(C)CC)c(OC(C)CC)c2)ccc1C(=O)Nc1ccc(C(=O)O)cc1OCc1ccccc1 (stereo not shown) [Compound 22] | IC50 [1]: 650 nM
